Columns and labels:
[1] = target: TXK (Homo sapiens, UniProt P42681); assay: Inhibition of human recombinant Txk (256 to end) by radiometric scintillation counting analysis
[2] = target: Tyrosine-protein kinase ABL1 (Homo sapiens, UniProt P00519); assay: Inhibition of human recombinant ABL1 using ATP/Ulight-TK peptide incubated for 15 mins
[3] = target: Tyrosine-protein kinase CSK (Homo sapiens, UniProt P41240); assay: Inhibition of human full length recombinant CSK by radiometric scintillation counting analysis
[4] = target: Tyrosine-protein kinase SYK (Homo sapiens) (UniProt P43405); assay: Inhibition of human full length recombinant Syk at 50 nM by radiometric scintillation counting analysis relative to control
[5] = tested on: RBL-2H3; assay: Antiallergic activity against anti-DNP-IgE sensitized rat RBL-2H3 cells assessed as […] of degranulation by measuring beta-hexosaminidase release using P-nitrophenyl-N-acetyl-D-glucosamide as substrate at 0.2 uM measured after 1 hr by microplate reader relative to control; assay type: functional
[6] = target: Macrophage colony-stimulating factor 1 receptor (Homo sapiens, UniProt P07333); assay: Inhibition of human recombinant CSF1R using ATP/Ulight-TK peptide incubated for 15 mins
[7] = target: T1, Tyrosine-protein kinase Tec (Homo sapiens) (UniProt P42680); assay: Inhibition of human recombinant Tec (174 to end) at 5 nM by radiometric scintillation counting analysis relative to control
T1 sequence (whole entry): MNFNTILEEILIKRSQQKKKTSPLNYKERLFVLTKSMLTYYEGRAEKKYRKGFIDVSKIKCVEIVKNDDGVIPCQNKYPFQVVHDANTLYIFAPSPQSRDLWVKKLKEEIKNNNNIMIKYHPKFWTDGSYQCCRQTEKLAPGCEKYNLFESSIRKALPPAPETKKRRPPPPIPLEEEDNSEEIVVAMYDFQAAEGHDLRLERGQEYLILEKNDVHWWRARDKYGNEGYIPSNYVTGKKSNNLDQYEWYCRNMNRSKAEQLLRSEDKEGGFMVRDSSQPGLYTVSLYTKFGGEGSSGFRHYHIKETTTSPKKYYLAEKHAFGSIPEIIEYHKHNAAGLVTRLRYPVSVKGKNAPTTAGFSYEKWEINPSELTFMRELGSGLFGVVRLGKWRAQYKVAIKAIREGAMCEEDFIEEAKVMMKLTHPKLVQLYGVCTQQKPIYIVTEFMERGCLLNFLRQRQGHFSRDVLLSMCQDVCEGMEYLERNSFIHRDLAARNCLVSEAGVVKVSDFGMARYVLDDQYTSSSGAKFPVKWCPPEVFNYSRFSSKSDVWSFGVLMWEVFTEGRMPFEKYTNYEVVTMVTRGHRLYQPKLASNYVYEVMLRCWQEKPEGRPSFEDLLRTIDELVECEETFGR

[8] = target: T2, Tyrosine-protein kinase ITK/TSK (Homo sapiens) (UniProt Q08881); assay: Inhibition of human recombinant ITK (352 to 617) at 50 nM by radiometric scintillation counting analysis relative to control
T2 sequence (whole entry): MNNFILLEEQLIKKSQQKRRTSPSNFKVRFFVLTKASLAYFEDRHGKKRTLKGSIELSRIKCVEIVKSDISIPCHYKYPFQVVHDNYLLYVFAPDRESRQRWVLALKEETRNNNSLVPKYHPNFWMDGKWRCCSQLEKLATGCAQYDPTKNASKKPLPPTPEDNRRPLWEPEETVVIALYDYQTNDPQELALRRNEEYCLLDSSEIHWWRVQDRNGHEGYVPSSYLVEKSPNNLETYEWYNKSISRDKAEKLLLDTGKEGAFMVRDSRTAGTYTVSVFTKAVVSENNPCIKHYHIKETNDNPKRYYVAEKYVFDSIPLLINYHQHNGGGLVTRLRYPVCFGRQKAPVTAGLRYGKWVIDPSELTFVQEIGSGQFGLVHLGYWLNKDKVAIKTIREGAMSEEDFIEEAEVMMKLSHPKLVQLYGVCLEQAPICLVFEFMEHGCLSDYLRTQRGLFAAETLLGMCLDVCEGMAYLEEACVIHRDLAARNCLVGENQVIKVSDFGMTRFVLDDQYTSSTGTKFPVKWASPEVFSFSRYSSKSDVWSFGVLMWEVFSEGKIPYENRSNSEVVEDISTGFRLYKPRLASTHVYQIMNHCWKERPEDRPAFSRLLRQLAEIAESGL

[9] = target: Tyrosine-protein kinase Lck (Homo sapiens, UniProt P06239); assay: Inhibition of human full length recombinant LCK by radiometric scintillation counting analysis
[10] = target: T3, Tyrosine-protein kinase Yes (Homo sapiens, UniProt P07947); assay: Inhibition of human full length recombinant Yes by radiometric scintillation counting analysis
Target sequence in this assay (P07947 whole entry): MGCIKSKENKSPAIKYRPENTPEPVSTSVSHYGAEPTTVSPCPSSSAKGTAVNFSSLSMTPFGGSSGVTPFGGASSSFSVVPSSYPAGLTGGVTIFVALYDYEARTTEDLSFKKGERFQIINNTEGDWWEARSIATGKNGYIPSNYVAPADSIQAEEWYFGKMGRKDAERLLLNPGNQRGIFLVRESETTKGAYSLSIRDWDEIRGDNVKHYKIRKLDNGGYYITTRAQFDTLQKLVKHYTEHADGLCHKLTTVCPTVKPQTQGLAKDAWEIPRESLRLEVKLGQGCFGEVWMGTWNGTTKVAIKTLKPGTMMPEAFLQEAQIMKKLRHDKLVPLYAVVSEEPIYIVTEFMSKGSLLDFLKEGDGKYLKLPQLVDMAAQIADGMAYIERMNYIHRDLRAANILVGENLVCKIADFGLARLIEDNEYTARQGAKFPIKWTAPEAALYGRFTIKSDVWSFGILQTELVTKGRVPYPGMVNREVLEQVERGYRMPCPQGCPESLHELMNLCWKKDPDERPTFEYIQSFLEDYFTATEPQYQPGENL

[11] = target: Tyrosine-protein kinase Fyn (Homo sapiens, UniProt P06241); assay: Inhibition of human full length recombinant Fyn by radiometric scintillation counting analysis
Sequence of Tyrosine-protein kinase Fyn (P06241 whole entry): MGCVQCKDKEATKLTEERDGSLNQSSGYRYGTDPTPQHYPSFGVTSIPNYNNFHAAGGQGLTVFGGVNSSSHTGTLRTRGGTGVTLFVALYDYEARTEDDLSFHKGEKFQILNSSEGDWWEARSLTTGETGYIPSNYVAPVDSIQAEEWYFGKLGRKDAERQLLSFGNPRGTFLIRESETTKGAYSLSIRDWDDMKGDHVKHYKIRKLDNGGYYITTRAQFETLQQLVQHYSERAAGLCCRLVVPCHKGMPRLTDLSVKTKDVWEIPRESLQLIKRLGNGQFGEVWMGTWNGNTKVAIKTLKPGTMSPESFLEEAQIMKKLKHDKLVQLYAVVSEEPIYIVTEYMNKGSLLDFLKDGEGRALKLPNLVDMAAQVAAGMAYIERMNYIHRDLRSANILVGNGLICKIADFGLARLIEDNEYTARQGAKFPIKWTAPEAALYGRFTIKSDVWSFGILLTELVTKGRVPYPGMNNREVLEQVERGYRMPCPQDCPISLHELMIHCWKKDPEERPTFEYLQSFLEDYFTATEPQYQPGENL

[12] = target: T1, Tyrosine-protein kinase Tec (Homo sapiens); assay: Inhibition of human recombinant Tec (174 to end) at 500 nM by radiometric scintillation counting analysis relative to control
[13] = target: RAC-alpha serine/threonine-protein kinase (Homo sapiens) (UniProt P31749); assay: Inhibition of human recombinant PKBalpha at 5 nM radiometric scintillation counting analysis relative to control
Sequence of RAC-alpha serine/threonine-protein kinase (Homo sapiens) (P31749 whole entry): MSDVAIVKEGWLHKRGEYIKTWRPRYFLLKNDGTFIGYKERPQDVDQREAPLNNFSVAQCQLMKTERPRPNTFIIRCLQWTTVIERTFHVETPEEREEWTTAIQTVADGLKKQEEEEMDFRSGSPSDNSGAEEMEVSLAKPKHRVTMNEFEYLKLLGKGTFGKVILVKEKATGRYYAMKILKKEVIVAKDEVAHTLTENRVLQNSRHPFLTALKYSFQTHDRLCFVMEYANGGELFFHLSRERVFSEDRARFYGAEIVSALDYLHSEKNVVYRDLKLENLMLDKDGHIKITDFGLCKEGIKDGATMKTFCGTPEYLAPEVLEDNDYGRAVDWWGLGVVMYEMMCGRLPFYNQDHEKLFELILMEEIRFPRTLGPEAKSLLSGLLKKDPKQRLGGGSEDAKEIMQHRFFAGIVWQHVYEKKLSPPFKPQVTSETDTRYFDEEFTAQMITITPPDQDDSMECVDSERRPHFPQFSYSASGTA

[14] = target: Tyrosine-protein kinase HCK (Homo sapiens, UniProt P08631); assay: Inhibition of human recombinant HCK (230 to 497) by radiometric scintillation counting analysis
Sequence of Tyrosine-protein kinase HCK (P08631 whole entry): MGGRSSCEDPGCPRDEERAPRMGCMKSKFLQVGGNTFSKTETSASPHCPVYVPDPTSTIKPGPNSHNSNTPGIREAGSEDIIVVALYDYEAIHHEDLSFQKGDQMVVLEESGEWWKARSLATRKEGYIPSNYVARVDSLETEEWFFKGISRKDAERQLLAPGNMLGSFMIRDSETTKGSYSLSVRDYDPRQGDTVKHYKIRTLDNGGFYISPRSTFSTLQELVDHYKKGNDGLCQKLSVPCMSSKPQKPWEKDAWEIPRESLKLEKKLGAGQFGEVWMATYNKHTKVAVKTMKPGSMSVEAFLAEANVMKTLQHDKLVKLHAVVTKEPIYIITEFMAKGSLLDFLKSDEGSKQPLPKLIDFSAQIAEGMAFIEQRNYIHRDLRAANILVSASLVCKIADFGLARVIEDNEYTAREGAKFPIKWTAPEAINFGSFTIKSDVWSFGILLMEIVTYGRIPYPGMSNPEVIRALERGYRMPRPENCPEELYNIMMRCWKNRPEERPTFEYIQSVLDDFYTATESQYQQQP

[15] = target: Cytoplasmic tyrosine-protein kinase BMX (Homo sapiens, UniProt P51813); assay: Inhibition of human full length recombinant Bmx by radiometric scintillation counting analysis
Sequence of Cytoplasmic tyrosine-protein kinase BMX (P51813 whole entry): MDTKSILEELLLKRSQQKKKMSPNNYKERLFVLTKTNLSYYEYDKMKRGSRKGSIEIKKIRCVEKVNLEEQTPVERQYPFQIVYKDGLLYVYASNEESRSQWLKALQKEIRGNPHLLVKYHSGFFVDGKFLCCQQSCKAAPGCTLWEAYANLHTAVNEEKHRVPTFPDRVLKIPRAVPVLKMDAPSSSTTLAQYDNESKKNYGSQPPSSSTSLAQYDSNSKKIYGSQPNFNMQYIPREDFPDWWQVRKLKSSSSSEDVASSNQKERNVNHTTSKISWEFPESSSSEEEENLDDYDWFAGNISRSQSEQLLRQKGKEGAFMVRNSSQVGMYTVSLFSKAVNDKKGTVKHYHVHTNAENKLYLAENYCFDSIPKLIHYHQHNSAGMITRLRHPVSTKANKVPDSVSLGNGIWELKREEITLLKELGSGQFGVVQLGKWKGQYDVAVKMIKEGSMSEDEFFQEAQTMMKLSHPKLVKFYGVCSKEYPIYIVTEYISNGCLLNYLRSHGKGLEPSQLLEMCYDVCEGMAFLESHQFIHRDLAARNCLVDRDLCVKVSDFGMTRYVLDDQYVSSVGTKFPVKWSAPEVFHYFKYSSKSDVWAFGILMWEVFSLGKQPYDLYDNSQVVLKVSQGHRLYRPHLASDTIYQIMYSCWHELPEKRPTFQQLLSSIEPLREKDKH

[16] = target: T3, Tyrosine-protein kinase Yes; assay: Inhibition of human full length recombinant Yes at 5 nM by radiometric scintillation counting analysis relative to control
Target sequence in this assay (P07947 2-543 limits assumed): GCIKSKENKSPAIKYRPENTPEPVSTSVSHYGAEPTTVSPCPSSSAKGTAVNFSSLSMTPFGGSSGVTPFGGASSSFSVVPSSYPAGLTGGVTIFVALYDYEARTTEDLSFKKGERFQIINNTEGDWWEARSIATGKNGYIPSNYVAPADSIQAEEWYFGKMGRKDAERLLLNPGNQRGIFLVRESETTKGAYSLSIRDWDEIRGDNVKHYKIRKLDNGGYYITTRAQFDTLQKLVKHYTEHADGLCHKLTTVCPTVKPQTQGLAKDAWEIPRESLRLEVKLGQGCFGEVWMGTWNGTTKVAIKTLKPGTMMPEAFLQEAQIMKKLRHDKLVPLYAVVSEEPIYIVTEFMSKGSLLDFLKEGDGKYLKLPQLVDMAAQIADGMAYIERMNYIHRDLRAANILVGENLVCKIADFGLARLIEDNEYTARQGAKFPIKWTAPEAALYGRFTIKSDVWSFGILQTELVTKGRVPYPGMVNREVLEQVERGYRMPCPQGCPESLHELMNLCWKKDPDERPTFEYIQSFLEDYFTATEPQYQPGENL

Sequence of Tyrosine-protein kinase ABL1 (P00519 whole entry): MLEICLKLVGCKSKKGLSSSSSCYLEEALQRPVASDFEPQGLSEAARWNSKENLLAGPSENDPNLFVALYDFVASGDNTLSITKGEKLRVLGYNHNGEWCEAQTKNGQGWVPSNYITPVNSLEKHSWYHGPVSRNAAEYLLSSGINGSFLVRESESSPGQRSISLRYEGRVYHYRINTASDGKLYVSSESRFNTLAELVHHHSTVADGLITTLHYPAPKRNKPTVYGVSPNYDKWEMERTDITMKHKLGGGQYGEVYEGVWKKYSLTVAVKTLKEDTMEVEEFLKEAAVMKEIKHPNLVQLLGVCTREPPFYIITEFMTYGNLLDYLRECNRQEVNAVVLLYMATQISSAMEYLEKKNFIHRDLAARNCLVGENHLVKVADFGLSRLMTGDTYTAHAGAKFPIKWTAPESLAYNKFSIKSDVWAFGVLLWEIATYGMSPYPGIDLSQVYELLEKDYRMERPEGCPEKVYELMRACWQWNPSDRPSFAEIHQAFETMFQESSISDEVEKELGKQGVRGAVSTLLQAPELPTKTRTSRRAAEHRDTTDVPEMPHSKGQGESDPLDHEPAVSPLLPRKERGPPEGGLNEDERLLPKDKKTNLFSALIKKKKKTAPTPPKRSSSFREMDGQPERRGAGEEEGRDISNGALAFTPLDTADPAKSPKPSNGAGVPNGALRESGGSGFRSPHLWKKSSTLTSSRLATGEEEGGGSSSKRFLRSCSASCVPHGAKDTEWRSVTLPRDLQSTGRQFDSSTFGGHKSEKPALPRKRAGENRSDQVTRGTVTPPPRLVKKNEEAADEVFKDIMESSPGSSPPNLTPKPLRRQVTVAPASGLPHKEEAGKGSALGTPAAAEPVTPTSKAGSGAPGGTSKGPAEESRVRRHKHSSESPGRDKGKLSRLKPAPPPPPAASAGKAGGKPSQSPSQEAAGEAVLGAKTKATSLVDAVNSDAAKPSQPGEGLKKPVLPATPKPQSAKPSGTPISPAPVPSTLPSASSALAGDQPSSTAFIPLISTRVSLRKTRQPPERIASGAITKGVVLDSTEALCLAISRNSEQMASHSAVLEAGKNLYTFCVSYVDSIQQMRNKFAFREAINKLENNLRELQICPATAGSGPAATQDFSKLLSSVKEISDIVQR
Sequence of TXK (P42681 whole entry, looked up): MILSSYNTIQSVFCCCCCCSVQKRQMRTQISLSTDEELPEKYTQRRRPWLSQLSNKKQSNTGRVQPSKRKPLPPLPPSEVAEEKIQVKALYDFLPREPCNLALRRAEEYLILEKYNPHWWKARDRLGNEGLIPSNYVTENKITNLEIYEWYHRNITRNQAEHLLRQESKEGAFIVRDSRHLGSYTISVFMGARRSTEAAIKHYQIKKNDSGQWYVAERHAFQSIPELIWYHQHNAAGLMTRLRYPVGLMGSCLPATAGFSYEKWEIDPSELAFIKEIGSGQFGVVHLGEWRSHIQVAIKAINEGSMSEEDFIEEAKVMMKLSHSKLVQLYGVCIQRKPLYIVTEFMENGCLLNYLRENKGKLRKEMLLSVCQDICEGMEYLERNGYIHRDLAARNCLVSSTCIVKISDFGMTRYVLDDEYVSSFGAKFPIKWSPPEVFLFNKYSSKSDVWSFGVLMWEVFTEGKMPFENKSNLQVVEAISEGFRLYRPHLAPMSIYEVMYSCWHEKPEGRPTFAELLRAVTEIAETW

inhibition [16] [%]	SMILES	IC50 [1] [nM]	IC50 [2] [nM]	IC50 [3] [nM]	inhibition [4] [%]	inhibition at 0.2 µM [5] [%]	IC50 [6] [nM]	inhibition [7] [%]	inhibition [8] [%]	IC50 [9] [nM]	IC50 [10] [nM]	IC50 [11] [nM]	inhibition [12] [%]	inhibition [13] [%]	IC50 [14] [nM]	IC50 [15] [nM]
	Cc1ccc(C(=O)Nc2cc(C(F)(F)F)cc(C(F)(F)F)c2)cc1C#Cc1cc(-c2cnn(C)c2)cnc1N	185	22	187	-1	162	48	1	-1	101	95	56	-3	-5	9	126
-7	Cc1ccc(C(=O)Nc2ccc(Cl)cc2Cl)cc1C#Cc1cc(-c2cnn(C)c2)cnc1N	> 1000	7	> 1000	-3			-5	3	29	> 1000	307	-7	4	57	> 1000
0	Cc1ccc(C(=O)Nc2ccc(OC(F)(F)F)cc2)cc1C#Cc1cc(-c2cnn(C)c2)cnc1N					122	22									
